Measured values: patent publication US10066025B2, “Compositions and methods for detecting, treating and preventing diseases and disorders” (YALE UNIVERSITY, priority 2012, dated 2018)
“Also recorded” adds a separate entry of the source.

Experiments:
[1] = tested on: PI3K/AKT and MAPK pathways; experiment: AKT and MAPK signaling and Bcl-2 expression by western blot; type: cell-based, human
Experimental: FIG. 12, comprising FIGS. 12A through 12E, is a set of images and graphs showing renalase upregulates Bcl-2, activates PI3K/AKT, ERK, p38, and inhibits JNK. Western blot analysis; P− indicates phosphorylated, activated proteins; signals normalized to GAPDH loading control, then changes in protein phosphorylation (increase=activation, decrease=inhibition) from time 0 are calculated. FIG. 12A: HK-2 and HUVEC cells incubated with renalase for 24 hrs; FIG. 12B: Western blot of time course of AKT and MAPK signaling by renalase, HK-2 cells incubated with renalase for indicated time; changes over baseline in 4c-d are significant (p<0.05); FIG. 12C: Activation of AKT(T308), AKT(5473) and ERK; FIG. 12D: Inhibition of JNK; FIG. 12E: Marked and sustained (60 min) upregulation of p38 by renalase in the presence of cisplatin, western blot for time course, REN=renalase, CP=cisplatin.
MAPK signaling by renalase and renalase peptides. Western blot analysis; ERK: Extracellular signal-Regulated Kinase 1 and 2; JNK: c-Jun N-terminal Kinases; AKT: protein kinase B; p-indicates phosphorylated, activated proteins; representative blot, n=3 (FIG. 20A). Renalase activates AKT (FIG. 20B). Western blot analysis; P− indicates phosphorylated, activated proteins Representative blot, n=3 (FIG. 20B, left panel). Signals normalized to GAPDH loading control; n=3, change over baseline statistically significant (P<0.05) from 1-60 min for ERK, p38 and AKT (T308), and at 30 min only for AKT (S473) (FIG. 20B, right panel). ERK or AKT inhibition abrogates protective effect of RP-H220 (FIG. 20C). Plasma creatinine levels from mice subjected to sham-surgery or to renal ischemia and reperfusion (IR); Renalase WT mice were subjected to sham-surgery or to 30 min renal IR. For mice subjected to renal IR, RP-H220 or vehicle (saline) was injected 10 min prior to renal ischemia. Some animals were pretreated with either the ERK inhibitor PD98059 or the PI3K/AKT inhibitor wortmanin. (N=6-8 per group). *: P<0.05 vs. vehicle-treated mice subjected to sham-surgery; #: P<0.05 vs. vehicle-treated WT mice subjected to renal IR (FIG. 20C).

[2] = tested on: renal ischemia/reperfusion (IR) injury; experiment: Murine model of renal ischemia/reperfusion (IR) injury, plasma creatinine; type: in vivo, mice; settings: renalase peptides 100 μg subcutaneous 10 to 30 min prior to 30 min renal ischemia, WT mice
Experimental: Adult male renalase deficient (KO) mice (Wu et al., 2011, Kidney Int 79: 853-860) on a C57BL/6 background were subjected to renal ischemia/reperfusion (IR) as described (Kim et al., 2009, Kidney Int 75: 809-823; Kim et al., 2010, Am J Physiol Renal Physiol 299(2):F347-58). Renalase KO or wild type (WT) mice (C57BL/6 from Harlan Labs, Indianapolis, Ind.) were subjected to sham-operation or to 20 min. (moderate) or 30 min. (severe) renal ischemia and 24 hr. reperfusion. To test the renal protective effects of recombinant human renalase, mice were pretreated with saline (vehicle) or with recombinant renalase (0.5, 1.5 or 4.5 mg/kg, s.c.) 10 min. prior to 30 min. renal ischemia. It was also tested whether renalase treatment after completion of renal ischemia also provides renal protection. Separate cohorts of mice were treated with saline or with renalase (1.5 mg/kg, s.c.) 30 min. or 60 min. after reperfusion of the ischemic kidney. To test whether blocking alpha receptors would mimic the renal protective effects of human recombinant renalase administration, phentolamine (an alpha receptor antagonist, 5 mg/kg, i.p.) was given in some mice 15 min. before renal ischemia.
Plasma creatinine was measured as described with an enzymatic creatinine reagent kit according to the manufacturer's instructions (Thermo Fisher Scientific, Waltham, Mass.) (Slot, 1965, J Clin Lab Invest 17: 381-387).
After animal care and use committee approval, adult male C57BL/6 (Harlan Labs, Indianapolis, Ind.) were subjected to sham-operation or to 30 minutes of renal ischemia followed by 24 hrs of reperfusion as previously described (Lee et al., 2004, American journal of physiology. Renal physiology 286:F298-306). To test the renal protective effects of renalase peptides (RP-220, RP-H220 and RP-224), mice were pretreated with saline (vehicle) or with renalase peptides (100 μg subcutaneous) 10 to 30 minutes prior to renal ischemia.
Blood was collected from mice anesthetized with isoflurane via cardiac puncture into a heparinized syringe and was subsequently centrifuged to separate plasma. Samples were submitted to the Yale O'Brien Kidney Center for measurement of BUN and creatinine. Plasma creatinine was measured either by an enzymatic creatinine reagent kit according to the manufacturer's instructions (Thermo Fisher Scientific, Waltham, Mass.) or by HPLC. These methods of creatinine measurement largely eliminate the interferences from mouse plasma chromagens, known to occur with the Jaffe method.

cisplatin-mediated AKI = experiment: Murine model of cisplatin AKI; type: in vivo, mice; settings: cisplatin + peptide; Sham 0.05±0.002, cisplatin 0.177±0.02; n=3
Experimental: The efficacy of recombinant renalase in treating cisplatin-induced AKI was investigated, and the mechanisms that mediate its protective action were assessed. Cisplatin (20 mg/kg) was administered by intra-peritoneal injection to either WT or renalase KO mice. The mice were sacrificed 3 days later. Blood was collected for BUN and creatinine measurements, and kidneys harvested for histologic examination, immunofluorescence (IF), and western blotting (WB). One renal pathologist, masked to the identity of the study animal, reviewed each kidney specimen. Pathologic features were scored using an ordinal rating scale (0-4; 0=none; 1=<25%, 2=26-50%; 3=51-75%; 4=76-100%) for the presence of tubular necrosis. Morphometry of renal cortex and medulla was performed using point counting technique. Points falling on injured tubules, were counted and the percentage of lesion area was calculated as percentage of total points counted
Cisplatin (15-20 mg/kg) was administered by intraperitoneal injection (IP) to either WT or renalase KO mice under brief isoflurane anesthesia. The animals were sacrificed 3 days later. […] Pathologic features were scored using an ordinal rating scale (0-4; 0=none; 1=<25%, 2=26-50%; 3=51-75%; 4=76-100%) for the presence of tubular necrosis. […] Points falling on injured tubules were counted, and the percentage of lesion area was calculated as percentage of total points counted. […]

RP H220: histidine tagged RP-220, SEQ ID NO: 4, HHHHHHCIRFVSIDNKKRNIESSEIG (listed as Homo sapiens)
return of phosphorylation to baseline ([1]; HK-2 cells): ≤ 60 min
time to detectable increased phosphorylation ([1]; HK-2 cells): ≤ 1 min
JNK phosphorylation ([1]; at 60 min): decreased
protection against ischemic AKI (renal injury, plasma creatinine at 24 hr) [2]: protected against ischemia
protection against ischemic AKI (renal injury, plasma creatinine at 24 hr) ([2]; listed as RP-H220): reduced renal injury; also recorded: more effective than RP-220; also recorded: ameliorated the renal ischemic injury
creatinine measured by HPLC (cisplatin-mediated AKI): 0.085±0.007
